Experimental data: ChEMBL document CHEMBL1141020, “Anthranilimide-based glycogen phosphorylase inhibitors for the treatment of type 2 diabetes: 1. Identification of 1-amino-1-cycloalkyl carboxylic acid headgroups” (Bioorg Med Chem Lett, 2009)

Key:
[1] = Metabolic stability in rat liver microsomes assessed as half life; format: ADME, Microsome
[2] = AUC (0 to infinity) in Sprague-Dawley rat at 1 mg/kg, po; format: ADME, organism-based; set-up: time infinity, dose 1 mg/kg, route oral; conditions: plasma
[3] = AUC (0 to infinity) in Beagle dog at 1 mg/kg, po; format: ADME, organism-based, Canis lupus familiaris; set-up: time infinity, dose 1 mg/kg, route oral; conditions: plasma
[4] = Clearance in Sprague-Dawley rat at 10 mg/kg, po or 2.5 mg/kg, iv; format: ADME, organism-based; conditions: in vivo
[5] = Clearance in Beagle dog at 5 mg/kg, po or 1 mg/kg, iv; format: ADME, organism-based, Canis lupus familiaris; conditions: in vivo
[6] = Volume of distribution at steady state in Sprague-Dawley rat at 10 mg/kg, po or 2.5 mg/kg, iv; format: ADME, organism-based; conditions: in vivo, read-out: Vdss
[7] = Volume of distribution at steady state in Beagle dog at 5 mg/kg, po or 1 mg/kg, iv; format: ADME, organism-based, Canis lupus familiaris; conditions: in vivo, read-out: Vdss
[8] = Half life in Sprague-Dawley rat at 10 mg/kg, po; format: ADME, organism-based; set-up: dose 10 mg/kg, route oral; conditions: in vivo
[9] = Half life in Beagle dog at 5 mg/kg, po; format: ADME, organism-based, Canis lupus familiaris; set-up: dose 5 mg/kg, route oral; conditions: in vivo
[10] = Oral bioavailability in Sprague-Dawley rat at 10 mg/kg; format: ADME, organism-based; conditions: in vivo
[11] = Oral bioavailability in Beagle dog at 5 mg/kg; format: ADME, organism-based, Canis lupus familiaris; conditions: in vivo

SMILES | half-life [1] | AUC(0-inf) [2] | AUC(0-inf) [3] | clearance [4] | clearance [5] | Vd [6] | Vd [7] | half-life [8] | half-life [9] | bioavailability [10] | bioavailability [11]
Cc1cc(C)c(NC(=O)Nc2cc3ccccc3cc2C(=O)N[C@H](C(=O)O)C2CCCCC2)c(C)c1 | < 0.25 h |  |  |  |  |  |  |  |  |  | 
Cc1cc(C)c(NC(=O)Nc2cc3ccccc3cc2C(=O)NC2(C(=O)O)CCCCCCC2)c(C)c1 |  | 4380 ng·h/mL | 620 ng·h/mL | 1.1 mL/min/kg | 13 mL/min/kg | 0.28 L/kg | 0.5 L/kg | 5.4 h | 4 h | 28% | 45%
Cc1cc(C)c(NC(=O)Nc2cc3ccccc3cc2C(=O)N[C@](C)(C(=O)O)C2CCCCC2)c(C)c1 |  | 1720 ng·h/mL |  | 7.5 mL/min/kg |  | 0.3 L/kg |  | 4.1 h |  | 37% | 
